Reference: ChEMBL document CHEMBL4229455, “Synthesis and anticancer activity of novel bisindolylhydroxymaleimide derivatives with potent GSK-3 kinase inhibition” (Bioorg Med Chem, 2018)

How the values were obtained:
SW-620 = experiment: Cytotoxicity against human SW620 cells assessed as cell growth at 10 uM after 48 hrs by SRB assay relative to control; assay type: functional; settings: SW-620, 48 h, read-out: Activity
NCI/ADR-RES = experiment: Cytotoxicity against human NCI-ADR-RES cells assessed as cell growth at 10 uM after 48 hrs by SRB assay relative to control; assay type: functional; settings: read-out: Activity
MOLT-4 = experiment: Cytotoxicity against human MOLT4 cells assessed as cell growth at 10 uM after 48 hrs by SRB assay relative to control; assay type: functional; settings: MOLT-4, 48 h, read-out: Activity
Aurora kinase B = Aurora kinase B (Homo sapiens, UniProt Q96GD4); experiment: Inhibition of recombinant full length human aurora B expressed in baculovirus infected Sf9 insect cells using MBP as substrate in presence of [gamma-33P]ATP
SK-MEL-2 = experiment: Cytotoxicity against human SK-MEL-2 cells assessed as cell growth at 10 uM after 48 hrs by SRB assay relative to control; assay type: functional; settings: SK-MEL-2, 48 h, read-out: Activity
BT-549 = experiment: Cytotoxicity against human BT549 cells assessed as cell growth at 10 uM after 48 hrs by SRB assay relative to control; assay type: functional; settings: BT-549, 48 h, read-out: Activity
UO-31 = experiment: Cytotoxicity against human UO31 cells assessed as cell growth at 10 uM after 48 hrs by SRB assay relative to control; assay type: functional; settings: UO-31, 48 h, read-out: Activity
M14 = experiment: Cytotoxicity against human M14 cells assessed as cell growth at 10 uM after 48 hrs by SRB assay relative to control; assay type: functional; settings: M14, 48 h, read-out: Activity
[1] = target: Serine/threonine-protein kinase pim-1 (Homo sapiens, UniProt P11309); experiment: Inhibition of recombinant full length human PIM1 expressed in bacteria assessed as residual activity at 10 uM using histone H1 as substrate in presence of [gamma-33P]ATP
MDA-MB-231 = experiment: Cytotoxicity against human MDA-MB-231 cells assessed as cell growth at 10 uM after 48 hrs by SRB assay relative to control; assay type: functional; settings: MDA-MB-231, 48 h, read-out: Activity
T47D = experiment: Cytotoxicity against human T47D cells assessed as cell growth at 10 uM after 48 hrs by SRB assay relative to control; assay type: functional; settings: read-out: Activity
KM12 = experiment: Cytotoxicity against human KM12 cells assessed as cell growth at 10 uM after 48 hrs by SRB assay relative to control; assay type: functional; settings: KM12, 48 h, read-out: Activity
[2] = target: Glycogen synthase kinase-3 (Sus scrofa) (UniProt B2LUN4+I6LNT8); experiment: Inhibition of domestic porcine brain full length GSK-3alpha/beta assessed as residual activity at 10 uM using GS-1 as substrate in presence of [gamma-33P]ATP; settings: Sus scrofa domesticus
SK-OV-3 = experiment: Cytotoxicity against human SKOV3 cells assessed as cell growth at 10 uM after 48 hrs by SRB assay relative to control; assay type: functional; settings: SK-OV-3, 48 h, read-out: Activity
SF-268 = experiment: Cytotoxicity against human SF268 cells assessed as cell growth at 10 uM after 48 hrs by SRB assay relative to control; assay type: functional; settings: SF-268, 48 h, read-out: Activity
HCT-116 = experiment: Cytotoxicity against human HCT116 cells assessed as cell growth at 10 uM after 48 hrs by SRB assay relative to control; assay type: functional; settings: HCT-116, 48 h, read-out: Activity
NCI-H522 = experiment: Cytotoxicity against human NCI-H522 cells assessed as cell growth at 10 uM after 48 hrs by SRB assay relative to control; assay type: functional; settings: NCI-H522, 48 h, read-out: Activity
OVCAR-3 = experiment: Cytotoxicity against human OVCAR3 cells assessed as cell growth at 10 uM after 48 hrs by SRB assay relative to control; assay type: functional; settings: OVCAR-3, 48 h, read-out: Activity
A498 = experiment: Cytotoxicity against human A498 cells assessed as cell growth at 10 uM after 48 hrs by SRB assay relative to control; assay type: functional; settings: A498, 48 h, read-out: Activity
HOP-62 = experiment: Cytotoxicity against human HOP62 cells assessed as cell growth at 10 uM after 48 hrs by SRB assay relative to control; assay type: functional; settings: HOP-62, 48 h, read-out: Activity
SNB-75 = experiment: Cytotoxicity against human SNB75 cells assessed as cell growth at 10 uM after 48 hrs by SRB assay relative to control; assay type: functional; settings: SNB-75, 48 h, read-out: Activity
LOX IMVI = experiment: Cytotoxicity against human LOXIMVI cells assessed as cell growth at 10 uM after 48 hrs by SRB assay relative to control; assay type: functional; settings: read-out: Activity
Malme-3M = experiment: Cytotoxicity against human MALME-3M cells assessed as cell growth at 10 uM after 48 hrs by SRB assay relative to control; assay type: functional; settings: read-out: Activity
SNB-19 = experiment: Cytotoxicity against human SNB19 cells assessed as cell growth at 10 uM after 48 hrs by SRB assay relative to control; assay type: functional; settings: SNB-19, 48 h, read-out: Activity
TK-10 = experiment: Cytotoxicity against human TK10 cells assessed as cell growth at 10 uM after 48 hrs by SRB assay relative to control; assay type: functional; settings: TK-10, 48 h, read-out: Activity
HT-29 = experiment: Cytotoxicity against human HT-29 cells assessed as cell growth at 10 uM after 48 hrs by SRB assay relative to control; assay type: functional; settings: HT-29, 48 h, read-out: Activity
NCI-H322M = experiment: Cytotoxicity against human NCI-H322M cells assessed as cell growth at 10 uM after 48 hrs by SRB assay relative to control; assay type: functional; settings: read-out: Activity
NCI-H226 = experiment: Cytotoxicity against human NCI-H226 cells assessed as cell growth at 10 uM after 48 hrs by SRB assay relative to control; assay type: functional; settings: NCI-H226, 48 h, read-out: Activity
SF-539 = experiment: Cytotoxicity against human SF539 cells assessed as cell growth at 10 uM after 48 hrs by SRB assay relative to control; assay type: functional; settings: SF-539, 48 h, read-out: Activity
OVCAR-4 = experiment: Cytotoxicity against human OVCAR4 cells assessed as cell growth at 10 uM after 48 hrs by SRB assay relative to control; assay type: functional; settings: OVCAR-4, 48 h, read-out: Activity
Sus scrofa domesticus = species: Sus scrofa domesticus; experiment: Inhibition of domestic porcine brain full length […] assessed as residual activity at 10 uM using RRKHAAIGSpAYSITA as substrate in presence of [gamma-33P]ATP
SR = experiment: Cytotoxicity against human SR cells assessed as cell growth at 10 uM after 48 hrs by SRB assay relative to control; assay type: functional; settings: read-out: Activity
MDA-MB-468 = experiment: Cytotoxicity against human MDA-MB-468 cells assessed as cell growth at 10 uM after 48 hrs by SRB assay relative to control; assay type: functional; settings: MDA-MB-468, 48 h, read-out: Activity

Chain of Serine/threonine-protein kinase pim-1 (P11309 whole entry, looked up): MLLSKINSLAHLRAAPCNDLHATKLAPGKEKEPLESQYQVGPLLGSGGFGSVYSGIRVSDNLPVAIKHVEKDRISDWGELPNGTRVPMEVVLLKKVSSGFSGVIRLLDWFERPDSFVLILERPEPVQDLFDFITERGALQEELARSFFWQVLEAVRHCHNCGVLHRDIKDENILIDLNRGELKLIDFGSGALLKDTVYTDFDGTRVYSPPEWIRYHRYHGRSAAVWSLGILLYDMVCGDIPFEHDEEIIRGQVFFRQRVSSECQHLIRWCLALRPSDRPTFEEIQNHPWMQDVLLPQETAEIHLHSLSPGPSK
Chain of Aurora kinase B (Q96GD4 whole entry): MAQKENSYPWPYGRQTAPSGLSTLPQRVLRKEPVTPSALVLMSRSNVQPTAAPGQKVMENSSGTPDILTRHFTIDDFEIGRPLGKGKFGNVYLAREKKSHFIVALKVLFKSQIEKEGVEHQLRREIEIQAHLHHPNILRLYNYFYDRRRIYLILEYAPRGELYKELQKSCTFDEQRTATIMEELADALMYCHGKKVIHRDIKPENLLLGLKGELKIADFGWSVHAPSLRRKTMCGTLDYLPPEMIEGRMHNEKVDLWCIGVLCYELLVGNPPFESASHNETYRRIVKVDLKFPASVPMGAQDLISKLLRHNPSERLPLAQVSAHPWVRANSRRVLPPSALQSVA

SMILES | growth at 10 µM (SW-620) | growth at 10 µM (NCI/ADR-RES) | growth at 10 µM (MOLT-4) | IC50 (Aurora kinase B) | growth at 10 µM (SK-MEL-2) | growth at 10 µM (BT-549) | growth at 10 µM (UO-31) | growth at 10 µM (M14) | Activity [1] | growth at 10 µM (MDA-MB-231) | growth at 10 µM (T47D) | growth at 10 µM (KM12) | Activity [2] | growth at 10 µM (SK-OV-3) | growth at 10 µM (SF-268) | growth at 10 µM (HCT-116) | growth at 10 µM (OVCAR-3) | growth at 10 µM (A498) | growth at 10 µM (HOP-62) | growth at 10 µM (SNB-75) | also measured
CC(C)n1cc(C2=C(c3cn(C)c4ccccc34)C(=O)N(O)C2=O)c2ccccc21 | 101% | 92.4% | 82.4% | > 10 µM | 86.6% | 93.2% | 56.4% | 94.8% | 28% | 70.1% | 87.3% | 87.4% | -16% | 95.8% | 97.3% | 85.4% | 87.6% | 99% | 84.6% | 84.9% | growth at 10 µM (NCI-H522): 84.7%; growth at 10 µM (LOX IMVI): 61.5%; growth at 10 µM (Malme-3M): 89%; growth at 10 µM (SNB-19): 101%; growth at 10 µM (TK-10): 127%; growth at 10 µM (HT-29): 105%; growth at 10 µM (NCI-H322M): 91.7%; growth at 10 µM (NCI-H226): 77.2%; growth at 10 µM (SF-539): 97.6%; growth at 10 µM (OVCAR-4): 99.6%; Activity (Sus scrofa domesticus): 98%
CC(C)n1cc(C2=C(c3c[nH]c4ccccc34)C(=O)N(O)C2=O)c2ccccc21 | 106% | 102% | 77% | > 10 µM | 86.8% | 99.7% | 67.9% | 98.9% | 24% | 89.5% | 86.7% | 88.3% | 2% | 102% | 104% | 85.4% | 92.7% | 93.5% | 98.6% | 82.6% | growth at 10 µM (NCI-H522): 76.4%; growth at 10 µM (LOX IMVI): 58.8%; growth at 10 µM (SR): 85.7%; growth at 10 µM (Malme-3M): 102%; growth at 10 µM (SNB-19): 111%; growth at 10 µM (TK-10): 84.5%; growth at 10 µM (HT-29): 99.2%; growth at 10 µM (NCI-H322M): 103%; growth at 10 µM (NCI-H226): 102%; growth at 10 µM (SF-539): 97.3%; growth at 10 µM (OVCAR-4): 111%; Activity (Sus scrofa domesticus): 72%
Cn1cc(C2=C(c3c[nH]c4ccccc34)C(=O)N(O)C2=O)c2ccccc21 | 87.7% | 89.5% | 79% | > 10 µM | 76.4% | 82.7% | 40.5% | 81% | 8% | 59.5% | 60.9% | 81.7% | -18% | 92.1% | 90.4% | 83.3% | 84.7% | 79.1% | 67.9% | 72.5% | growth at 10 µM (NCI-H522): 56.3%; growth at 10 µM (LOX IMVI): 51%; growth at 10 µM (SR): 30.9%; growth at 10 µM (Malme-3M): 68.7%; growth at 10 µM (SNB-19): 97.5%; growth at 10 µM (TK-10): 120%; growth at 10 µM (HT-29): 81.5%; growth at 10 µM (NCI-H322M): 81.9%; growth at 10 µM (NCI-H226): 76.9%; growth at 10 µM (SF-539): 95.5%; growth at 10 µM (OVCAR-4): 103%; Activity (Sus scrofa domesticus): 40%
Cn1cc(C2=C(c3cn(CCCCCC#N)c4ccccc34)C(=O)N(O)C2=O)c2ccccc21 | 101% | 102% | 95.7% | > 10 µM | 94.1% | 81.4% | 50.8% | 100% | 52% | 58.9% | 78.5% | 88.2% | 8% | 86.5% | 94.9% | 85.1% | 93.6% | 76.7% | 89.6% | 68% | growth at 10 µM (LOX IMVI): 60.2%; growth at 10 µM (SR): 67.2%; growth at 10 µM (SNB-19): 104%; growth at 10 µM (TK-10): 116%; growth at 10 µM (HT-29): 90.1%; growth at 10 µM (NCI-H322M): 98%; growth at 10 µM (MDA-MB-468): 87.5%; growth at 10 µM (NCI-H226): 77.8%; growth at 10 µM (SF-539): 98.4%; growth at 10 µM (OVCAR-4): 116%; Activity (Sus scrofa domesticus): 88%
